Reference: ChEMBL document CHEMBL1201862, “PubChem BioAssay data set” (2004)
Values joined by “and” are separate entries in the source; they are usually repeats but may differ in a detail not shown here. Equal entries are not always repeated. Active and inactive are the calls of the source.

Tests used:
H4 = assay: Luminescence Cell-Based Dose Response HTS to Identify Activators of 5'UTR Stem-Loop Driven Prion Protein mRNA Translation in H4 Neuroglioblastoma Cells. [Related pubchem assays: 1829 (Project Summary), 1814 (Primary HTS)]; type: functional; conditions: Homo sapiens
[1] = Luminescence Cell-Based Dose Confirmation HTS to Identify Activators of 5'UTR Stem-Loop Driven Alpha-Synuclein mRNA Translation in H4 Neuroglioblastoma Cells. [Related pubchem assays: 1829 (Project Summary), 1814 (Primary HTS)]; type: functional
[2] = molecular target: DNA dC->dU-editing enzyme APOBEC-3A (Homo sapiens, UniProt P31941); assay: Dose Response confirmation of small molecule APOBEC3A DNA Deaminase Inhibitors via a fluorescence-based single-stranded DNA deaminase assay. [Related pubchem assays (depositor defined):AID493011, AID493024]; type: functional
[3] = Luminescence Cell-Based Dose Response HTS to Identify Activators of Luciferase Translation or Activity in H4 […] Cells. [Related pubchem assays: 1829 (Project Summary), 1814 (Primary HTS)]; type: functional
[4] = molecular target: DNA dC->dU-editing enzyme APOBEC-3G (Homo sapiens, UniProt Q9HC16); type: functional;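 further: Dose-response counterscreen measuring inhibition of APOBEC3G DNA deaminase activity, run while confirming APOBEC3A inhibitors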
[5] = molecular target: Eukaryotic translation initiation factor 4E (Mus musculus, UniProt P63073); assay: eIF4E–eIF4G protein interaction inhibitors, dose response, biochemical, TR-FRET (AID 855); type: functional;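 further: potency for disrupting eIF4E binding to eIF4GI seen as loss of FRET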
[6] = molecular target: T1, Mannose-6-phosphate isomerase (Homo sapiens, UniProt P34949); assay: PMI enzyme inhibitors, confirmation, biochemical, fluorescence intensity (AID 1535)
T1 sequence (P34949 whole entry): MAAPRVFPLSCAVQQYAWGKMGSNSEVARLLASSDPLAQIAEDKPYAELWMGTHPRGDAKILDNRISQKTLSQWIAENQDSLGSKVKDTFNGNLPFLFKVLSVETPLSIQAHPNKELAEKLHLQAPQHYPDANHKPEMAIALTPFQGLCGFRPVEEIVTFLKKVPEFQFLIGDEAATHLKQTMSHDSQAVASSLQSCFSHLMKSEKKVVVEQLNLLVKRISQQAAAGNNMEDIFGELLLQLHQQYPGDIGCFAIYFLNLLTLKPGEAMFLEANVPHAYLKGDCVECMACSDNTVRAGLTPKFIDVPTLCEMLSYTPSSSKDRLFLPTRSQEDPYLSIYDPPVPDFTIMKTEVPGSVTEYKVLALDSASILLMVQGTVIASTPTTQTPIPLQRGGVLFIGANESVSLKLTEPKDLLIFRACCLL

Phosphomannomutase 2 = molecular target: T2, Phosphomannomutase 2 (Homo sapiens, UniProt O15305); assay: Counter screen SAR assay for PMM2 inhibitors via a fluorescence intensity assay. [Related pubchem assays (depositor defined):AID1545, AID1574]
T2 sequence (O15305 whole entry): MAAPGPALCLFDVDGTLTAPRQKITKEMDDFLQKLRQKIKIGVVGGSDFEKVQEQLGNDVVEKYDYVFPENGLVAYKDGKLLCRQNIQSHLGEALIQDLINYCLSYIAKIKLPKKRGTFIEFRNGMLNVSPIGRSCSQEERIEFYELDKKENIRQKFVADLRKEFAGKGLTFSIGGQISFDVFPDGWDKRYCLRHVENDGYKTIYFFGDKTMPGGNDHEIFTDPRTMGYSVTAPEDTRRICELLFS

HEK293 = assay: cells; conditions: Homo sapiens;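 further: cells exposed to compound for 14 hours overnight before viability readout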
Tumor necrosis factor = Tumor necrosis factor (Homo sapiens, UniProt P01375); assay: TNFa-triggered NF-kB activation inhibitors, SAR follow-up, cell-based, revised (AID 2337); type: functional
[7] = molecular target: T3, Nucleotide-binding oligomerization domain-containing protein 1 (Homo sapiens, UniProt Q9Y239); assay: NOD1 signaling inhibitors, SAR follow-up, revised (AID 2333); type: functional
T3 sequence (Q9Y239 whole entry): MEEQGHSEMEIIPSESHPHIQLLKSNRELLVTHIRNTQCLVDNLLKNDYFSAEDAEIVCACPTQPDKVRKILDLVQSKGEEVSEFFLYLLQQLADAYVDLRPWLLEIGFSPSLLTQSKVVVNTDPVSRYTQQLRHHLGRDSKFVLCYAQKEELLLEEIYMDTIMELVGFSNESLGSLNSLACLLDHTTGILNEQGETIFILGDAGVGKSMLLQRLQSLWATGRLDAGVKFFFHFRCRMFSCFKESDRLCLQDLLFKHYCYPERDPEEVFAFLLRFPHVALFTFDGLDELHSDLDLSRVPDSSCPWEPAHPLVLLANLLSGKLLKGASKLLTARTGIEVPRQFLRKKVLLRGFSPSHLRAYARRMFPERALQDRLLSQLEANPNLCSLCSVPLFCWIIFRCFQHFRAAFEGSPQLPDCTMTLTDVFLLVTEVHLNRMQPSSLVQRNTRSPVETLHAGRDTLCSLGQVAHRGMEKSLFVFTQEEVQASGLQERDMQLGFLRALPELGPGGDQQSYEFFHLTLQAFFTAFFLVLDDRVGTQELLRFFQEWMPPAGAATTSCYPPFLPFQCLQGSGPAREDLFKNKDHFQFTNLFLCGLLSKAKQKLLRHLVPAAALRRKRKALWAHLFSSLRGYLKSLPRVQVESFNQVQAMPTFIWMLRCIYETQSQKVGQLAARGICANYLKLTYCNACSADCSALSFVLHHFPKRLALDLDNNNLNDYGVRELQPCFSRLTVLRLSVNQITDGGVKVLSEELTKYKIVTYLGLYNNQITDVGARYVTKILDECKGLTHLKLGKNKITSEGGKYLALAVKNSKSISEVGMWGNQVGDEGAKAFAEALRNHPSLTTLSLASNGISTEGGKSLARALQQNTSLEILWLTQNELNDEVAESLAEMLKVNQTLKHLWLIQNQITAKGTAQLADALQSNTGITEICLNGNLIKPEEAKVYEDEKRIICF

H9c2 = assay: cells; type: functional, cell-based; conditions: Rattus norvegicus, H9c2, Myocardium;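 further: confirmatory concentration-response retest of ultra-high-throughput screening hits for modulation of myocardial damage; cell death induced by hydrogen peroxide oxidative stress; compound pretreatment for 60 min then peroxide exposure for 2 h; potency is for protecting the cells against peroxide damage rather than for killing them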
cells = type: functional
[8] = THP-1 cell cytotoxicity, dose response, cytotoxicity control for non-replicating M. tuberculosis project (AID 489025); type: functional
[9] = inhibitors of SNCA 5'UTR-driven reporter translation, confirmation, H4 neuroglioma cells, luminescence (AID 1988); type: functional, cell-based
[10] = Luminescence Cell-Based Dose Response HTS to Identify Inhibitors of 5'UTR Stem-Loop Driven Prion Protein mRNA Translation in H4 Neuroglioblastoma Cells. [Related pubchem assays: 1827 (Project Summary), 1813 (Primary HTS)]; type: functional
[11] = inhibitors of firefly luciferase expression or activity, dose response, H4 neuroglioma cells, luminescence (AID 1990); type: functional, cell-based
[12] = NIH-3T3 fibroblast cytotoxicity, dose response, cytotoxicity control, cell-based, fluorescence, Alamar Blue, secondary assay (AID 2327); type: functional;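 further: NIH-3T3 mouse fibroblasts cultured with fluconazole at 8 µg/mL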
[13] = cytotoxicity in HEK-293T cells, dose response, cytotoxicity control for TCR NF-kB inhibitor project, luminescence, T-cell screen hits (AID 489026); type: functional, cell-based;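 further: cells exposed to compound about 14 hours before the viability readout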
[14] = C. albicans growth with fluconazole, confirmation, fluorescence, retest (AID 2467); type: functional, cell-based

Sequence of DNA dC->dU-editing enzyme APOBEC-3G (Q9HC16 whole entry): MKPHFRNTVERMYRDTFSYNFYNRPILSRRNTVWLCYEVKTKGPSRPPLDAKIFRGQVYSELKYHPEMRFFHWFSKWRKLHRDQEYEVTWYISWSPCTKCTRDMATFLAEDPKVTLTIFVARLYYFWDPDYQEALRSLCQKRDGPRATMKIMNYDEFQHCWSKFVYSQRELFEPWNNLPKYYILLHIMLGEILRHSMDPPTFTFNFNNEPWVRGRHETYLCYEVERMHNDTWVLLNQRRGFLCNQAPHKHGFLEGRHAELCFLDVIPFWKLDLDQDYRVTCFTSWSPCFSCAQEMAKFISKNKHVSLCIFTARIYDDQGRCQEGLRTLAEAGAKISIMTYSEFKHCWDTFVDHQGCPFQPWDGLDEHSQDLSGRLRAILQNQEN
Sequence of DNA dC->dU-editing enzyme APOBEC-3A (P31941 whole entry): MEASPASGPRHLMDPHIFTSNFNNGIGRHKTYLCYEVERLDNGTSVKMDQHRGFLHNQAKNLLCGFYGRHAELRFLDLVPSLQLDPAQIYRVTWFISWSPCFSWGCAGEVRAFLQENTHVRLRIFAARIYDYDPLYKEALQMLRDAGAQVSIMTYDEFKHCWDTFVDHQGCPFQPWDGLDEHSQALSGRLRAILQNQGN
Sequence of Tumor necrosis factor (P01375 whole entry, the tested form may be a part): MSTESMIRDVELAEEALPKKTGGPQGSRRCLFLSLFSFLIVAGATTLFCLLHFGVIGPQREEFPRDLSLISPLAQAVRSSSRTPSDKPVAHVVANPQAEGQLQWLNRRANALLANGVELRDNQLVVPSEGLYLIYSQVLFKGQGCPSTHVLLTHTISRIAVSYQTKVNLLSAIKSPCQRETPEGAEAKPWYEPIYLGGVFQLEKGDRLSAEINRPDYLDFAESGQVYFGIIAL
Sequence of Eukaryotic translation initiation factor 4E (P63073 whole entry): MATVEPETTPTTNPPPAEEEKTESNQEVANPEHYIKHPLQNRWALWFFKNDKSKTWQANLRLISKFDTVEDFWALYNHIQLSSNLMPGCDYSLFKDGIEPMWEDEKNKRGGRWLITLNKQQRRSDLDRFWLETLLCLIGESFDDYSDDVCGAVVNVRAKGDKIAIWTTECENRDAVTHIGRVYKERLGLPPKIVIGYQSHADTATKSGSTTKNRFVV

With `CCCn1nc(NC(=O)COC)c2cc3cc(C)ccc3nc21` as the compound, how does the EC50 (H4) read?
Its EC50 is > 120 µM (inconclusive).

And the EC50 [1]?
Its EC50 is 3.88 µM (active).

And the IC50 [2]?
The IC50 was 2.71 µM (active).

What about the EC50 [3] of the same compound?
Its EC50 is 12.9 µM (active).

What about the IC50 [4] of the same compound?
The IC50 was 2.89 µM (active).

For `S=C(Nc1cccc(Cl)c1Cl)N1CCC2(CC1)OCCO2`, which IC50 [5] is on record?
Its IC50 is 50 µM (inactive).

Which results are given for `Clc1nss/c1=N\c1nccs1`?
IC50 [6]: 32.9 µM (active) and 4.34 µM (active); IC50 (Phosphomannomutase 2): > 100 µM (inactive)

What does the source list for `O=c1c2ccccc2sn1-c1nc2ccc(SC(F)F)cc2s1`?
IC50 [6]: > 50 µM (inactive); IC50 (Phosphomannomutase 2): > 100 µM (inactive)

With `O=c1c2ccccc2sn1-c1ncc(Br)s1` as the compound, how does the IC50 [6] read?
The IC50 was > 50 µM (inactive).

And the IC50 (Phosphomannomutase 2)?
The IC50 was > 100 µM (inactive).

For `COc1ccc(C(=O)Nc2sc3c(c2C(=O)O)CC(C)(C)OC3)cc1OC`, which IC50 (HEK293) is on record?
Its IC50 is > 20 µM (inactive).

What about the IC50 (Tumor necrosis factor) of the same compound?
Its IC50 is > 20 µM (inactive).

What about the IC50 [7] of the same compound?
Its IC50 is 15.1 µM (active).

For `O=C(COc1ccc(F)cc1)N/N=C/c1cccc2cccnc12`, which IC50 (H9c2) is on record?
The IC50 was 20.8 µM (active).

And the IC50 (cells)?
Its IC50 is 17.2 µM (active).

And the CC50 [8]?
The CC50 was 24.8 µM (active).

Which EC50 [9] does the source give for `CC[n+]1cc(C)ccc1C=Cc1ccc(N(C)C)cc1` here?
The EC50 was 10.4 µM (active).

What about the EC50 [10] of the same compound?
The EC50 was 65.4 µM (active).

What about the EC50 [11] of the same compound?
Its EC50 is 11.7 µM (active).

And the IC50 [2]?
The IC50 was 2.73 µM (active).

And the EC50 [12]?
Its EC50 is 58.6 µM (active).

And the IC50 [13]?
The IC50 was > 80 µM (inactive).

What about the EC50 [14] of the same compound?
The EC50 was 1.25 µM (active).

And the IC50 [4]?
Its IC50 is 4.02 µM (active).
